Experimental data taken from publication PMC4607407 (PLoS ONE, 2015).
“And” between values parts separate entries of the source, which are not always exact repeats. Equal entries are not always repeated.

Legend:
[1] = target: T1, Haspin (Homo sapiens, UniProt Q8TF76); experiment: Kinase profiling (Carna Biosciences); assay type: biochemical
T1 construct: purchased Carna Biosciences, Inc. (Kobe, Japan)

[2] = system: p-AKT(S473); experiment: Cell-based ELISA in AN3CA cells; parameters: species or system human; details: 1 hour
Source text: (DOCX) Click here for additional data file.
P-AKT (Thr308), p-AKT (Ser473) and p-PRAS40 (Thr246) in the cells were probed with corresponding rabbit antibodies (Cell Signaling Technology). Total AKT and total PRAS40 in the cells were probed with corresponding mouse antibodies (Cell Signaling Technology). Horseradish peroxidase (HRP)-conjugated goat anti-rabbit IgG (Cell Signaling Technology) and alkaline phosphatase (AP)-conjugated goat anti-mouse IgG (Santa Cruz Biotechnology, Inc., Dallas, TX) were used as secondary antibodies. The HRP chemiluminescent detection was performed with SuperSignal ELISA Pico Chemiluminescent Substate (Thermo Fisher Scientific, Inc.) and PHERAstar (BMG Labtech Inc., Cary, NC) according the manufacturer’s instructions. After washing the AP chemiluminescent detection was performed with ELISA-Light Immunoassay System with CDP-Star and Sapphire-II Substrate/Enhancer Solution (Life Technologies Corporation) and PHERAstar according to the manufacturer’s instructions. The chemiluminescent signal was rounded to an integer in MARS 2.40 (BMG Labtech, Inc.) and the relative phosphorylation rate was calculated.

[3] = system: BT-483; experiment: OncoPanel anti-proliferative activity; assay type: cell-based; details: Homo sapiens, 72 hour
Experimental: Cells were seeded into 384-well plates and incubated in a humidified atmosphere of 5% CO2 at 37°C. Compounds were added 24 hours post cell seeding. At the same time, a time zero untreated cell plate was generated. Compounds were serially diluted 3.16-fold and assayed over a range of 10 concentrations in buffer containing 0.1% DMSO. Automated fluorescence microscopy was carried out using an IN Cell Analyzer 1000 (GE Healthcare, Marlborough, MA), and images were collected with a 4X objective. After a 72 hour incubation period, cells were fixed and stained with fluorescently labeled antibodies and nuclear dye to determine relative cell number. Twelve bit tiff images were acquired using the IN Cell Analyzer 1000 3.2 and analyzed with Developer Toolbox 1.6 software (GE Healthcare). GI50 values were calculated using nonlinear regression to fit data to a sigmoidal 4 point, 4 parameter One-Site dose response model, where: y (fit) = A + [(B–A)/(1 + ((C/x) ^ D))]. Curve-fitting, GI50 calculations and report generation are performed using a custom data reduction engine MathIQ based software (AIM).

[4] = system: melanoma PDX tumor model (ST052C); experiment: Vemurafenib-resistant melanoma PDX combination study; assay type: in vivo, mice; details: ARQ 092 100 mg/kg 5 days on 2 days off; trametinib 3 mg/kg; p<0.05
Experimental: Athymic nude mice (Charles River Laboratories, Wilmington, MA) were subcutaneously implanted with tumor fragments and the study was initiated seven days later when the mean tumor volume was approximately 140 mm^3. […] After 13 days, the dosing schedule for trametinib was reduced to a schedule of 5 days on and 2 days off.
The tumor length and width (mm) were measured using a digital caliper. The estimated tumor volume (mm^3) was calculated according to the following formula: 0.5 x (tumor length) x (tumor width)^2, and reported as the mean ± SEM.

[5] = system: ST1529; experiment: Endometrial PDX panel screen; assay type: in vivo, mice
[6] = system: ST993; experiment: Endometrial PDX panel screen; assay type: in vivo, mice
[7] = system: ST040; experiment: Endometrial PDX panel screen; assay type: in vivo, mice; details: 100 mg/kg once daily orally 14 days
[8] = system: ST1385; experiment: Endometrial PDX panel screen; assay type: in vivo, mice; details: 100 mg/kg once daily orally 14 days
[9] = system: ST328; experiment: Endometrial PDX panel screen; assay type: in vivo, mice; details: 100 mg/kg once daily orally 14 days
[10] = system: ST1061; experiment: Endometrial PDX panel screen; assay type: in vivo, mice; details: 100 mg/kg once daily orally 14 days
[11] = system: ST657; experiment: Endometrial PDX panel screen; assay type: in vivo, mice; details: 100 mg/kg once daily orally 14 days
[12] = system: ST819; experiment: Endometrial PDX panel screen; assay type: in vivo, mice; details: 100 mg/kg once daily orally 14 days
[13] = system: ST1006; experiment: Endometrial PDX panel screen; assay type: in vivo, mice; details: 100 mg/kg once daily orally 14 days
[14] = system: ST633; experiment: Endometrial PDX panel screen; assay type: in vivo, mice; details: 100 mg/kg once daily orally 14 days
[15] = system: ST013; experiment: Endometrial PDX panel screen; assay type: in vivo, mice; details: 100 mg/kg once daily orally 14 days
[16] = system: ST1094; experiment: Endometrial PDX panel screen; assay type: in vivo, mice; details: 100 mg/kg once daily orally 14 days
[17] = system: ST1764; experiment: Endometrial PDX panel screen; assay type: in vivo, mice; details: 100 mg/kg once daily orally 14 days
[18] = system: ST953; experiment: Endometrial PDX panel screen; assay type: in vivo, mice; details: 100 mg/kg once daily orally 14 days
[19] = system: pAKT(T308); experiment: cells; details: Homo sapiens, AN3-CA, 2 h, read-out: IC50 pAKT(T308)
[20] = 100 mg/kg once daily orally 14 days

T1 sequence (Q8TF76 whole entry): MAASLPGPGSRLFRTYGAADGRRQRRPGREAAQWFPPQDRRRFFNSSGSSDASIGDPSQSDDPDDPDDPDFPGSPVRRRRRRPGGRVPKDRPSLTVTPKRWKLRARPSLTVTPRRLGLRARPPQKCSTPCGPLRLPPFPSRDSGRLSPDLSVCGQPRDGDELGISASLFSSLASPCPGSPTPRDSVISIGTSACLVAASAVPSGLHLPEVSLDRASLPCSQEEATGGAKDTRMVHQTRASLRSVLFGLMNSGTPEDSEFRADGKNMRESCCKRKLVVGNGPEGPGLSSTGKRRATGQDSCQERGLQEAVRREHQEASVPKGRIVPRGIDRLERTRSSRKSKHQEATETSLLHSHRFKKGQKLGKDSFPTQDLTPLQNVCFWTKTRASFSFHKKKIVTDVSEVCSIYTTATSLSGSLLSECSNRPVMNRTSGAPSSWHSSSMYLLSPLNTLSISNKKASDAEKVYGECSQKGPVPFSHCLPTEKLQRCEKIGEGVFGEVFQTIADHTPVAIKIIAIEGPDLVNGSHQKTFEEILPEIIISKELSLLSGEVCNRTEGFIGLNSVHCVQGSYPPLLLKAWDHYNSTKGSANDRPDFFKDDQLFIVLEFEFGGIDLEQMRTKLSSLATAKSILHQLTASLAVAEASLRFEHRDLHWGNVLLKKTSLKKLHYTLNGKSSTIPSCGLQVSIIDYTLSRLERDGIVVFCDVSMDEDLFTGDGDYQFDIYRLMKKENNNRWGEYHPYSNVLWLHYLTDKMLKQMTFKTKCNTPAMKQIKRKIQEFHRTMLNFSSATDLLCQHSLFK

## CC(=O)N(C)C1CCN(c2cccc(-c3ccc4nc(-c5cccnc5N)n(-c5ccc(C6(N)CCC6)cc5)c4n3)c2)CC1 [ARQ 751]
[1]
  % Inhibition at 5 μM, Haspin: 30%
[2]
  EC50: 10 nM and 10.2 nM

## Nc1ncccc1-c1nc2ccc(-c3ccccc3)nc2n1-c1ccc(C2(N)CCC2)cc1 [ARQ 092]
[3]
  GI50: 40000 nM
[4]
  TGI: 16%
[5]; [20]
  % T/C: 0%
  Tumor Volume Mean: 235 mm³
[5]; MTD of 100 mg/kg
  tumor growth inhibition: over 90%
[6]; [20]
  % T/C: 10%
  Tumor Volume Mean: 300 mm³
[6]; MTD of 100 mg/kg
  tumor growth inhibition: over 90%
[7]
  % T/C: 13%
  Tumor Volume Mean: 229 mm³
[8]
  % T/C: 23%
  Tumor Volume Mean: 256 mm³
[9]
  % T/C: 26%
  Tumor Volume Mean: 313 mm³
[10]
  % T/C: 28%
  Tumor Volume Mean: 440 mm³
[11]
  % T/C: 46%
  Tumor Volume Mean: 523 mm³
[12]
  % T/C: 49%
  Tumor Volume Mean: 229 mm³
[13]
  % T/C: 55%
  Tumor Volume Mean: 623 mm³
[14]
  % T/C: 70%
  Tumor Volume Mean: 2900 mm³
[15]
  % T/C: 100%
  Tumor Volume Mean: 540 mm³
[16]
  % T/C: 100%
  Tumor Volume Mean: 394 mm³
[17]
  % T/C: 100%
  Tumor Volume Mean: 896 mm³
[18]
  Tumor Volume Mean: 150 mm³
[19]
  IC50: 62 nM
